Results reported in patent publication US7662404B2, “Transdermal delivery system for dried particulate or lyophilized peptides and polypeptides” (TransPharma Medical Ltd., priority 2002, dated 2010).
Where two headings read alike, the source gives them in different places.

Key:
Format in all cases: in vivo
[1] = Plasma hPTH (1-34) in female adult healthy human volunteers, ViaDerm and printed patches or SC (Example 13); conditions: female, human, plasma; for AUC: 12 h
Protocol: Transdermal drug delivery study of hPTH (1-34) in four female adult healthy human volunteers was performed using ViaDerm and printed patches.
To evaluate the transdermal delivery of hPTH (1-34), printed patches containing 100 μg or 200 μg hPTH (1-34) (FORTEO®, Teriparatide purchased from Ely Lilly, Indianapolis, Ind., USA) were prepared. Patch area was 1.44 cm^2.
ViaDerm parameters: electrode array of 75 or 100 micro-channels/cm^2; ViaDerm was applied two or three times generating micro-channels at a density of 150 or 300 micro-channels/cm^2; Voltage: 290 volts, constant voltage; Burst length: 5000 μsec; Maximal current: 50 mA.
Each female adult received five treatments of hPTH (1-34) with a minimum of 2 day clearance between treatments. The treatments were as follows: • 1. Three ViaDerm applications (final density of 300 micro-channels/cm^2) on one site of the upper arm. Two printed patches, each containing 100 μg hPTH (1-34), were placed over the application area (each for 6 hours). • 2. Two ViaDerm applications (final density of 150 micro-channels/cm^2) on one site of the upper arm. Two printed patches, each containing 200 μg hPTH (1-34), were placed over the application area. • 3. Three ViaDerm applications (final density of 300 micro-channels/cm^2) on one site of the upper arm. Two printed patches, each containing 200 μg hPTH (1-34), were placed over the application area. • 4. Subcutaneous (SC) injection of 20 μg hPTH (1-34) (FORTEO®, Teriparatide was purchased from Ely Lilly, Indianapolis, Ind., USA). • 5. SC injection of 60 μg hPTH (1-34) (FORTEO®).
Plasma hPTH (1-34), calcium ions and phosphate ions were determined by Eliza using commercial kits.

[2] = Plasma hPTH (1-34) from different printed patch formulations in pigs (Example 12)
Protocol: The experiment was performed as follows: Group 1: Each pig underwent two ViaDerm applications (150 micro-channels/cm^2) on one site on the back. A 100 μg hPTH (1-34) printed patch was placed over the application area and covered with Tegaderm. Total delivery area=1.4 cm (total 3 pigs). Formulation: hPTH (1-34) in water for injection (WFI), pH=6. Group 2: Each pig underwent two ViaDerm applications (150 micro-channels/cm^2) on one site on the back. A 100 μg hPTH (1-34) printed patch was placed over the application area and covered with Tegaderm. Total delivery area=1.4 cm^2 (total 3 pigs). Formulation: hPTH (1-34): Sucrose (1:5.5) in 0.72% acetic acid, pH=4. Group 3: Each pig underwent two ViaDerm applications (150 micro-channels/cm^2) on one site on the back. A 100 μg hPTH (1-34) printed patch was placed over the application area and covered with Tegaderm. Total delivery area=1.4 cm^2 (total 3 pigs). Formulation: hPTH (1-34): Trehalose (1:11) in 0.4% citric acid, pH=4. Group 4: Each pig was injected SC with 0.2 ml (20 μg) of hPTH (1-34) diluted to a 100 μg/ml solution with saline (total 3 pigs).

[3] = Plasma hPTH (1-34) after SC injection or printed patches (water) with ViaDerm in pigs (Example 11); conditions: for bioavailability: read-out: % bioavailability cf. to S.C.
Protocol: Pigs (males, 10-12 kg, Large white) were treated as follows:
Group 1: 10 μg of hPTH (1-34) were injected subcutaneously (S.C.; total 3 pigs)
[…] Printed patches containing 50 μg hPTH (1-34) were placed over the treated area and covered with Tegaderm (3M Health Care, St. Paul, Minn.). Total delivery area=1.4 cm (total 3 pigs).
(§1) […] Printed patches containing 100 μg hPTH (1-34) were placed over the treated area and covered with Tegaderm. Total delivery area=1.4 cm (total 3 pigs).
as §1
hPTH (1-34) was dissolved in water and then printed on the patches. hPTH (1-34) concentrations in pig plasma were measured by an ELISA kit (Immutopics, San Clemente, Calif., USA).

Q: Which Tmax ([1]; other: transdermal printed patch on ViaDerm-treated skin, 200 ug, T-3: 300 micro-channels/cm^2, 2 printed patches each 200 μg, read-out: Tmax (individual subjects)) does the source give for `CC[C@H](C)[C@H](NC(=O)[C@H](CCC(=O)O)NC(=O)[C@H](CO)NC(=O)[C@@H](NC(=O)[C@@H](N)CO)C(C)C)C(=O)N[C@@H](CCC(N)=O)C(=O)N[C@@H](CC(C)C)C(=O)N[C@@H](CCSC)C(=O)N[C@@H](Cc1cnc[nH]1)C(=O)N[C@@H](CC(N)=O)C(=O)N[C@@H](CC(C)C)C(=O)NCC(=O)N[C@@H](CCCCN)C(=O)N[C@@H](Cc1cnc[nH]1)C(=O)N[C@@H](CC(C)C)C(=O)N[C@@H](CC(N)=O)C(=O)N[C@@H](CO)C(=O)N[C@@H](CCSC)C(=O)N[C@@H](CCC(=O)O)C(=O)N[C@@H](CCCN=C(N)N)C(=O)N[C@H](C(=O)N[C@@H](CCC(=O)O)C(=O)N[C@@H](Cc1c[nH]c2ccccc12)C(=O)N[C@@H](CC(C)C)C(=O)N[C@@H](CCCN=C(N)N)C(=O)N[C@@H](CCCCN)C(=O)N[C@@H](CCCCN)C(=O)N[C@@H](CC(C)C)C(=O)N[C@@H](CCC(N)=O)C(=O)N[C@@H](CC(=O)O)C(=O)N[C@H](C(=O)N[C@@H](Cc1cnc[nH]1)C(=O)N[C@@H](CC(N)=O)C(=O)N[C@@H](Cc1ccccc1)C(=O)O)C(C)C)C(C)C` [hPTH (1-34)] here?
A: The Tmax was 2.5 h.

Q: And the AUC ([1]; sc, 20 ug, T-4: SC injection of 20 μg, mean of 4 women, read-out: AUC AVG)?
A: The AUC was 0.152 ng·h/mL.

Q: What about the AUC ([1]; sc, 20 ug, T-4: SC injection of 20 μg, read-out: AUC (individual subjects)) of the same compound?
A: Its AUC is 0.103 ng·h/mL.

Q: What about the Cmax ([1]; sc, 20 ug, T-4: SC injection of 20 μg, mean of 4 women) of the same compound?
A: The Cmax was 0.022 ng/mL.

Q: And the Tmax ([1]; sc, 20 ug, T-4: SC injection of 20 μg, mean of 4 women, read-out: Tmax AVG)?
A: Its Tmax is 1.8 h.

Q: And the AUC ([1]; sc, 60 ug, T-5: SC injection of 60 μg, mean of 4 women, read-out: AUC AVG)?
A: The AUC was 0.264 ng·h/mL.

Q: And the Cmax ([1]; sc, 60 ug, T-5: SC injection of 60 μg, mean of 4 women)?
A: The Cmax was 0.115 ng/mL.

Q: What about the Tmax ([1]; sc, 60 ug, T-5: SC injection of 60 μg, mean of 4 women, read-out: Tmax AVG) of the same compound?
A: The Tmax was 0.8 h.

Q: And the Tmax ([1]; sc, 60 ug, T-5: SC injection of 60 μg, read-out: Tmax (individual subjects))?
A: Its Tmax is 1 h.

Q: What about the Amount delivered ([2]; S.C. 20 ug) of the same compound?
A: The Amount delivered was 20 µg.

Q: What about the “% bio” value ([2]; S.C. 20 ug (reference)) of the same compound?
A: Its value is 100%.

Q: And the AUC ([2]; pig, plasma, sc, S.C. 20 ug)?
A: Its AUC is 1.16 ± 0.761 ng·h/mL.

Q: And the Cmax ([2]; pig, plasma, sc, S.C. 20 ug, neck)?
A: Its Cmax is 1.08 ng/mL.

Q: And the Amount delivered ([3]; S.C. 10 μg)?
A: Its Amount delivered is 10 µg.

Q: And the AUC ([3]; male, Large white, pig, plasma, other: transdermal printed patch on ViaDerm-treated skin, 50 ug, printed patch 50 μg)?
A: Its AUC is 0.46 ng·h/mL.

Q: And the Cmax ([3]; male, Large white, pig, plasma, other: transdermal printed patch on ViaDerm-treated skin, 50 ug, printed patch 50 μg (water), ViaDerm, back, read-out: Cmax)?
A: The Cmax was ~0.15 ng/mL.

Q: And the AUC ([3]; male, Large white, pig, plasma, other: transdermal printed patch on ViaDerm-treated skin, 100 ug, patch 100 μg)?
A: Its AUC is 0.919 ng·h/mL.

Q: And the Cmax ([3]; male, Large white, pig, plasma, other: transdermal printed patch on ViaDerm-treated skin, 100 ug, printed patch 100 μg (water), ViaDerm, back, read-out: Cmax)?
A: Its Cmax is 0.32 ng/mL.

Q: What about the AUC ([3]; male, Large white, pig, plasma, other: transdermal printed patch on ViaDerm-treated skin, 200 ug, patch 200 μg) of the same compound?
A: The AUC was 1.6 ng·h/mL.

Q: What about the Cmax ([3]; male, Large white, pig, plasma, other: transdermal printed patch on ViaDerm-treated skin, 200 ug, printed patch 200 μg (water), ViaDerm, back, read-out: Cmax) of the same compound?
A: The Cmax was ~0.32 ng/mL.

Q: What about the AUC ([3]; male, Large white, pig, plasma, sc, 10 ug, S.C. 10 μg) of the same compound?
A: Its AUC is 0.365 ng·h/mL.

Q: What about the bioavailability ([3]; male, Large white, pig, plasma, sc, 10 ug, S.C. 10 μg (reference)) of the same compound?
A: The bioavailability was 100%.

Q: What about the Cmax ([3]; male, Large white, pig, plasma, sc, 10 ug, S.C. 10 μg, neck, read-out: Cmax) of the same compound?
A: Its Cmax is 0.374 ng/mL.

Q: What about the bioavailability ([3]; male, Large white, pig, plasma, sc, 50 ug, printed patch 50 μg) of the same compound?
A: Its bioavailability is 25.2%.

Q: And the bioavailability ([3]; male, Large white, pig, plasma, sc, 100 ug, patch 100 μg)?
A: The bioavailability was 25.2%.

Q: And the bioavailability ([3]; male, Large white, pig, plasma, sc, 200 ug, patch 200 μg)?
A: The bioavailability was 21.9%.

Q: What about the Amount delivered ([3]; patch 100 μg) of the same compound?
A: Its Amount delivered is 225.18 µg.

Q: What about the Amount delivered ([3]; patch 200 μg) of the same compound?
A: Its Amount delivered is 43.84 µg.

Q: And the Amount delivered ([3]; printed patch 50 μg)?
A: The Amount delivered was 12.6 µg.

Q: What about the Cmax ([3]; printed patch 50 μg (water), ViaDerm, back) of the same compound?
A: Its Cmax is 0.136 ng/mL.

Q: And the Cmax ([3]; printed patch 200 μg (water), ViaDerm, back)?
A: The Cmax was 0.317 ng/mL.
